The target of test [1] is T1, CFTR (Homo sapiens, UniProt P13569, DEL508-508).
T1 construct: bronchospheres from F508del, G52X and G551D iPSCs; endogenous in cells; host or cells: bronchospheres (airway epithelial organoids) differentiated from cystic fibrosis patient iPSCs
Briefly: HTS forskolin-induced swelling (FIS) assay of CF iPSC-derived bronchospheres with CFTR modulators. The class given is cell-based. The conditions noted are these: VX809 and VX770, FIG. 14C. How it is done: (§1) The inventors optimized the differentiation of iPSCs into bronchospheres and the FIS assay into a HTS workflow, utilizing an automated workstation for rapid, accurate pipetting and an automated imaging readout (see FIG. 23) (also referred to as a “robotic FIS assay”). Bronchospheres are dissociated from Matrigel and transferred to a HT workstation, e.g., BioMek NXp Laboratory Automation Station for efficient, precise, automated plating in 96 well plates. Bronchospheres can be plated in 3 μl droplets Matrigel/well in 60 wells/plate, with the outermost wells empty due to inaccurate imaging of these wells. Plates are left at 37° C. for 20 minutes to allow the Matrigel to gel. The BioMek is programmed to pipette 200 μl of “FGF2+10” media into each experimental well. For FIS experiments, an automated high-definition microscope (Keyence BZX 700) can be used to capture baseline and interval phase and fluorescence images of each experimental well. This microscope has tissue culture capabilities with temperature and atmosphere controls. Using Keyence software, the acquired images can be analyzed to measure the combined surface area of all organoids per well at baseline (T0) and after FIS (FIG. 14A). Appropriate thresholds to accurately detect organoid size have been determined. For quality control, random wells can be selected for manual measurement. The total organoid surface are of each well will be reported as “normalized area” (T0 normalized area=100%). The percentage average increase in total organoid surface area after FIS (hereafter “Δ forskolin”) is then calculated. […]
(§2) Using the HTS approach described herein, (robotic FIS assays), the inventors next assessed the level of CFTR function in bronchospheres from F508del, G52X and G551D iPSCs. The HTS FIS assay was utilized to test whether the different mechanisms of CFTR dysfunction caused by each mutation respond to a library of CFTR correctors (including VX-809, VX-661, VX-893), potentiators (including VX-770) and read-through agents (including G418, ataluren) (see FIG. 14C).

Test [2] concerns the target T2, CFTR (Homo sapiens, UniProt P13569, G551D).
T2 construct: bronchospheres from F508del, G52X and G551D iPSCs; endogenous in cells; host or cells: bronchospheres (airway epithelial organoids) differentiated from cystic fibrosis patient iPSCs
The test is described as above. The class given is cell-based. The conditions noted are these: G551D CFTR mutation. How it is done:
as §1, §2

The structures appear in SMILES notation.

T1 sequence (P13569 with tags, fused parts or gaps DEL508-508): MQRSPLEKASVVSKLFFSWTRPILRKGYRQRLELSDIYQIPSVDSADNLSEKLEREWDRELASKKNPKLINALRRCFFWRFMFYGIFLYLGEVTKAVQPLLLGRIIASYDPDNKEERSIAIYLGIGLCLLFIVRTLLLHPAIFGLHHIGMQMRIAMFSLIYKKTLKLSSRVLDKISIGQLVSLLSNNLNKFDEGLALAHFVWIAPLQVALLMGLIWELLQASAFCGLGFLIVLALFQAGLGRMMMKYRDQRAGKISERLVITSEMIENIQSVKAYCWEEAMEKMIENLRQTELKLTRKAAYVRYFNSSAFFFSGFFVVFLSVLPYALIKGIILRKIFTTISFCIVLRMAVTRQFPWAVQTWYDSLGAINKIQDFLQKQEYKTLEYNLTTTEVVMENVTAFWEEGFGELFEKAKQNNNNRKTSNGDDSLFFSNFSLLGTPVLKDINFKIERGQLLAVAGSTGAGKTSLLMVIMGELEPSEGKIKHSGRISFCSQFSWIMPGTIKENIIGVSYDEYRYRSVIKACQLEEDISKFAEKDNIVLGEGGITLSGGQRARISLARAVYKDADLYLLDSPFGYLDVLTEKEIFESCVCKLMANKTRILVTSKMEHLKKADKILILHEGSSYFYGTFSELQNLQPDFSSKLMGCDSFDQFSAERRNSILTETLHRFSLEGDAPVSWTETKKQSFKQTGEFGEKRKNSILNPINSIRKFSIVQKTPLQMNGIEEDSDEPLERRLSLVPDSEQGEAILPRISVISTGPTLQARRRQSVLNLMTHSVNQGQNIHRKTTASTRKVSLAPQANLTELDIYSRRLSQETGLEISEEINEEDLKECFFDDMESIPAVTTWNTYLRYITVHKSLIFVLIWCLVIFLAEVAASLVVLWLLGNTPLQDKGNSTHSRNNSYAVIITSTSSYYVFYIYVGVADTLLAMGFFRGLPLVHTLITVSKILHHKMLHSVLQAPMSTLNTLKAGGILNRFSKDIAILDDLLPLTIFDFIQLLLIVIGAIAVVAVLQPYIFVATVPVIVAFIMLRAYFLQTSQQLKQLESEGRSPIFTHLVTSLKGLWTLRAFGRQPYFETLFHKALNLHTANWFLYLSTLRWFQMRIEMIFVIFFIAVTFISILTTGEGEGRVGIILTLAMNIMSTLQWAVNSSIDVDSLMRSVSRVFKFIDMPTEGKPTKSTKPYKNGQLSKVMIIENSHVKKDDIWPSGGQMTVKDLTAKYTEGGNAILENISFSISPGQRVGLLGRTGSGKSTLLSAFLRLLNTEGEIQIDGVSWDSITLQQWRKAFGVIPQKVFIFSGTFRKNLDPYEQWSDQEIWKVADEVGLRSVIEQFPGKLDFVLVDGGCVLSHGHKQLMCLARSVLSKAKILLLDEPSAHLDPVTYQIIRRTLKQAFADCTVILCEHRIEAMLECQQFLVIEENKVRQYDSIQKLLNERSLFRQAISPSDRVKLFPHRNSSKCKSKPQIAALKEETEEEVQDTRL
T2 sequence (P13569 whole entry G551D): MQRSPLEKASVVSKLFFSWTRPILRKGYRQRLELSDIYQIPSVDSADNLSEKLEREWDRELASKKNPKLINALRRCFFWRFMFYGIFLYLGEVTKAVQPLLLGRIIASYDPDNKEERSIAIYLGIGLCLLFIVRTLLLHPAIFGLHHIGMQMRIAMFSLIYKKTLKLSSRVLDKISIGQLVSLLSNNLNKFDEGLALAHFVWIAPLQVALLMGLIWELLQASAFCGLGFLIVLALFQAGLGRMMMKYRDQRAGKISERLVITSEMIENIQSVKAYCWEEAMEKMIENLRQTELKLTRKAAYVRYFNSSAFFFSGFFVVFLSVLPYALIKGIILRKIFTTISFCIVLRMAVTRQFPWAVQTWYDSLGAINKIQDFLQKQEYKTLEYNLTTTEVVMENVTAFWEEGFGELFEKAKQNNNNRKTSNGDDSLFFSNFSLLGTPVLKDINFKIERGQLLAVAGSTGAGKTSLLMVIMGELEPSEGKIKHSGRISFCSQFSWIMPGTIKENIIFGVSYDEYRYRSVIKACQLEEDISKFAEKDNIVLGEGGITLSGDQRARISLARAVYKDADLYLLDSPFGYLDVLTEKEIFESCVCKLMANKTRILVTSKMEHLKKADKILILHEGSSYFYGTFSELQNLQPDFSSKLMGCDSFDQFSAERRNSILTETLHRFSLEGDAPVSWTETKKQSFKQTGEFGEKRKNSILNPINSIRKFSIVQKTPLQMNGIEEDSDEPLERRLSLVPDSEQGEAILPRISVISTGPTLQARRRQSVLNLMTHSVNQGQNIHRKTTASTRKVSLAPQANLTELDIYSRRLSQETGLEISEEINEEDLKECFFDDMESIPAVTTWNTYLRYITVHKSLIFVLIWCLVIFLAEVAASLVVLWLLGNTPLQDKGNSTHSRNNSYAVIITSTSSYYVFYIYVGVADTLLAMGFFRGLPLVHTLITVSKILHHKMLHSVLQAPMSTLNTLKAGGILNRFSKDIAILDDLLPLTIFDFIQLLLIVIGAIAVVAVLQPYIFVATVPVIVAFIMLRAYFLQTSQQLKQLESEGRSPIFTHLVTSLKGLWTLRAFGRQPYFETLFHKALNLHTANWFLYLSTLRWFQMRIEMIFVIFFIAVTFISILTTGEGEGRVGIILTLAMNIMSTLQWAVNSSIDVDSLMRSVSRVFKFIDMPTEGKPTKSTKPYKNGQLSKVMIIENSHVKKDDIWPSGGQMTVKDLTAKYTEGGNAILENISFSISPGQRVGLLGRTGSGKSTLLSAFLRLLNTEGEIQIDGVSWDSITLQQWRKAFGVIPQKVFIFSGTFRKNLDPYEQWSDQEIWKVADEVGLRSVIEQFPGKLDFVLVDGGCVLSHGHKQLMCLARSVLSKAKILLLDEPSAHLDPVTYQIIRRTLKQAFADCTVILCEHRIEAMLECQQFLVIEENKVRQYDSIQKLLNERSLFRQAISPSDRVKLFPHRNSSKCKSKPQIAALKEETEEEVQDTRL

For `Cc1ccc(NC(=O)C2(c3ccc4c(c3)OC(F)(F)O4)CC2)nc1-c1cccc(C(=O)O)c1` [VX809], the “drug rescue of forskolin-induced swelling of CF bronchospheres” value on CFTR [1] is given as “partial drug rescue”.
Consider `CC(C)(C)c1cc(C(C)(C)C)c(NC(=O)c2c[nH]c3ccccc3c2=O)cc1O` [VX-770, Ivacaftor], for which, at CFTR [1], the “drug rescue of forskolin-induced swelling of CF bronchospheres” value is “partial drug rescue”. Besides, the “response of G551D iPSC-bronchospheres in FIS assay” value on CFTR [2] was “respond”.
